Laboratory results reported in patent publication US8889731B2, “Compounds, compositions and methods for repelling blood-feeding arthropods and deterring their landing and feeding” (Contech Enterprises Inc., priority 2007, dated 2014).

Legend:
Anopheles gambiae = experiment: Arm-in-cage repellent/deterrent bioassay on exposed human forearm (modified WHO protocol), Anopheles gambiae; type: in vivo
Method: (§1) Candidate repellents and deterrents were bioassayed according to a modified protocol from the World Health Organization (1996). At least 1 hour prior to each bioassay, 75 host-seeking non blood-fed, nulliparous, 5- to 8-day-old female Aedes aegypti, Anopheles gambiae or Culex quinquefasciatus were placed into a wood-framed cage (26.5 cm on each side and 42.5 cm high) with a wooden floor, screened mesh sides and top, and a clear acrylic front fitted with a cotton stockinette sleeve (10 cm diameter). The test subject's arm was covered with an elbow-length polyethylene glove with an excised patch (16.6 cm long, 6 cm wide) to expose the ventral forearm of the test subject. Candidate deterrents were formulated in mineral (paraffin) oil and applied to the exposed forearm 5 min prior to inserting the arm into the cage. The inserted arm remained in the cage for 3 min every 30 min. Prior to each 3-min bioassay period, the hand of the untreated arm was inserted into the cage to ascertain that it received 10 bites within 30 sec as an indication of “biting pressure”.
(§2) The bioassay was terminated when the treated arm received ≧2 bites in one 3-min bioassay period or one bite in each of two consecutive bioassay periods. The time elapsed from experiment initiation to first bite was recorded as deterrent failure or complete protection time.
(§3) N,N-diethyl-m-toluamide formulated in ethanol at a corresponding dose served as a positive control, and mineral oil by itself served as a negative control. On each day, only one candidate compound was tested, ensuring that any residual material in the chamber had disappeared before the next bioassay.
(§4) To determine the repellence and deterrence of 8-allylsulfanyloctan-1-ol against Anopheles gambiae, a 2%, 5% or a 10% formulation of 8-allylsulfanyloctan-1-ol in mineral oil was applied in Experiments 5-7 at a dose of 1.5 mg per cm^2 to the skin of the test person, and was bioassayed according to the protocol described under EXAMPLE 2. In Experiment 8, mineral oil by itself served as a negative control and was tested at the same dose (1.5 mg per cm^2) as in Experiments 5-7. Each of Experiments 5-8 was replicated 4 times.
To be able to compare the repellence and deterrence caused N,N-diethyl-m-toluamide (DEET), and by 8-allylsulfanyloctan-1-ol, Experiment 13 tested a 2% formulation of N,N-diethyl-m-toluamide in ethanol (the best formulant for this compound) for protection from bites by Anopheles gambiae. A dose of 1.5 mg per cm^2 was applied to the skin of the test person and bioassayed according to the protocol described under EXAMPLE 2.
To compare the repellence and deterrence against Anopheles gambiae caused by 8-allyl-sulfanyloctan-1-ol as a single active ingredient and by 8-allylsulfanyloctan-1-ol in combination with vanillin as a second active ingredient, we tested a 6.7% emulsion of vanillin (Experiment 18), a 6.7-% emulsion of 8-allylsulfanyl-octan-1-ol (Experiment 19) and a 13.4% emulsion of 8-allylsulfanyloctan-1-ol plus vanillin (1:1 ratio) (Experiment 20). 8-Allylsulfanyloctan-1-ol and vanillin were formulated in Emulsion No. 1 (see EXAMPLE 9). In each of Experiments 18-20, test stimuli were applied at a dose of 1.5 mg per cm^2 to the skin of the test person, and were bioassayed according to the protocol described under EXAMPLE 2. In Experiment 21, Emulsion No. 1 served as a positive control and was tested at the same dose (1.5 mg per cm^2) as in experiments 18-20. Each of Experiments 18-21 was replicated three times.

Aedes aegypti = experiment: Arm-in-cage repellent/deterrent bioassay on exposed human forearm (modified WHO protocol), Aedes aegypti; type: in vivo; details: for pest or weed control at 0.5 mg/cm2 / pest or weed control at 0.1 mg/cm2: Aedes aegypti, topical, (C-T)/C x 100 at time of failure, read-out: Percent repellence
Method: as §1, §2, §3
To determine the repellence and deterrence of 8-allylsulfanyloctan-1-ol against Aedes aegypti, a 5%, 10% or 25% formulation of 8-allylsulfanyloctan-1-ol in mineral oil was applied in Experiments 1-3 at a dose of 1.5 mg (total composition) per cm^2 to the skin of the test person, and was bioassayed according to the protocol described under EXAMPLE 2. In Experiment 4, mineral oil by itself served as a negative control and was bioassayed at the same dose (1.5 mg per cm^2) as in Experiments 1-3. Each of Experiments 1-4 was replicated four times.
To compare the repellence and deterrence against Aedes aegypti caused by 8-allylsulfanyloctan-1-ol as a single active ingredient and by 8-allylsulfanyloctan-1-ol in combination with vanillin as a second active ingredient, we tested a 6.7% emulsion of vanillin (Experiment 14), a 6.7% emulsion of 8-allylsulfanyloctan-1-ol (Experiment 15), and a 13.4% emulsion of 8-allylsulfanyloctan-1-ol plus vanillin (1:1 ratio) (Experiment 16). 8-Allylsulfanyloctan-1-ol and vanillin were formulated in Emulsion No. 1 (see EXAMPLE 9). In each of Experiments […], test stimuli were applied at a dose of 1.5 mg per cm^2 to the skin of the test person, and were bioassayed according to the protocol described under EXAMPLE 2. In Experiment 17, Emulsion No. 1 served as a positive control and was tested at the same dose (1.5 mg per cm^2) as in Experiments 14-16.
To be able to compare the repellence and deterrence caused by N,N-diethyl-m-toluamide and by 8-allylsulfanyloctan-1-ol plus vanillin in Emulsion No. 1 (EXAMPLE 9), Experiment 26 tested a 6.7% formulation of N,N-diethyl-m-toluamide in ethanol (the best formulant for DEET) for protection from bites by Aedes egypti. In each replicate, a dose of 1.5 mg per […] was applied to the skin of the test person and bioassayed according to the protocol described under EXAMPLE 2.
To be able to further compare the deterrence caused by N,N-diethyl-m-toluamide with that caused by 8-allylsulfanyloctan-1-ol plus vanillin, Experiment 27 tested a 10.4% formulation of N,N-diethyl-m-toluamide in ethanol, and Experiment 28 tested 8-allylsulfanyloctan-1-ol (10.4%) plus vanillin (7.9%) in Emulsion No. 2 (EXAMPLE 10). […]

Culex quinquefasciatus = experiment: Arm-in-cage repellent/deterrent bioassay on exposed human forearm (modified WHO protocol), Culex quinquefasciatus; type: in vivo; details: 6.7% single active in Emulsion No. 1 (FIG. 9 legend: 2.0%), 1.5 mg per cm^2, Experiments 22, 23
Method: as §1, §2, §3
as §4, with “Culex quinquefasciatus,” for “Anopheles gambiae,”, “2% and” for “2%,”, “9-11” for “5-7”, “12,” for “8,”, “[…].” for “5-7.”, “9-11” for “5-8”
To compare the repellence and deterrence against Culex quinquefasciatus caused by 8-allylsulfanyloctan-1-ol as a single active ingredient and by 8-allylsulfanyloctan-1-ol in combination with vanillin as a second active ingredient, we tested a 6.7% emulsion of vanillin (Experiment 22), a 6.7% emulsion of 8-allylsulfanyloctan-1-ol (Experiment 23) and a 13.4% emulsion of 8-allylsulfanyloctan-1-ol plus vanillin (1:1 ratio) (Experiment 24). 8-Allylsulfanyloctan-1-ol and vanillin were formulated in Emulsion No. 1 (see EXAMPLE 9). In each of Experiments […], test stimuli were applied at a dose of 1.5 mg per cm^2 to the skin of the test person, and were bioassayed according to the protocol described under EXAMPLE 2. In Experiment 25, Emulsion No. 1 served as a positive control and was tested at the same dose (1.5 mg per cm^2) as in Experiments 22-24. Each of Experiments 22-25 was replicated three times.

[1] = test system: male or female Aedes aegypti antennae; experiment: Coupled gas chromatographic-electroantennographic detection (GC-EAD) of garlic oil extract
Method: FIG. 1 illustrates flame ionization detector (FID) and electroantennograhic detector (EAD: male or female Aedes aegypti antennae) responses to aliquots of the low boiling temperature portion of garlic oil extract. Chromatography: Hewlett Packard (HP) gas chromatograph equipped with a fused silica column (30 m×0.32 mm ID) coated with DB-5; injector and detector temperature: 250° C.; temperature program: 50° C.
Aliquots of garlic oil extracts were then subjected to coupled gas chromatographic-electroantennographic detection (GC-EAD) analysis. Fourteen components (10 shown in FIG. 1) elicited responses from female or male mosquito antennae. Some of these components were isolated by high-performance liquid chromatography (HPLC) for identification by nuclear magnetic resonance spectroscopy (NMR). Other components were identified (compounds 11-14 in TABLE 2) by coupled GC-mass spectrometry and by retention index calculations. […] Four of the 10 components in FIG. 1 were tentatively identified by comparing their mass spectra and retention indices with those reported in the literature (Block et al. 1998).
(§5) Components with high molecular weight (>250 daltons) are advantageous in that they: 1) dissipate slowly from treated surfaces; 2) provide long-lasting protection against mosquitoes and 3) convey little, if any, offensive smell. The relative abundance of such components was enhanced by treating garlic oil under vacuum, thus stripping away lower-boiling components. In GC-EAD analyses of the high-boiling residue, four components elicited responses from mosquito antennae.

mosquitoes = experiment: General bioassay procedure with garlic oil, its components and fractions (mosquito species not given); type: in vivo
Method: as §1, §2, §3
Garlic oil (Allium sativum—Mexico; Clearwater Soap Works, Box 1775 RR1, Clearwater, BC V0E 1N0, Canada) was formulated in mineral oil and tested using the general bioassay procedure described in EXAMPLE 2 at a dose of 0.1 mg per cm^2 of arm surface. It expressed repellence and deterrence for ˜30 min.
Some of the 10 components in FIG. 1 were bioassayed singly (see general bioassay procedure) and in various combinations, all of which were as deterrent to mosquitoes as garlic oil.
To determine the most deterrent component(s) in garlic oil, it was fractionated by HPLC into four fractions, each containing one or more of the EAD-active components (compounds 1-10 in FIG. 1 and 11-14 in TABLE 2). Each fraction was then bioassayed and shown to be similarly effective in repelling and deterring mosquitoes.
as §5

[2] = Dosage 0.1 mg/cm^2, 0 = immediate failure

SMILES | pest or weed control at 0.5 mg/cm2 (Aedes aegypti; Dosage 0.5 mg/cm^2) [%] | Failure time (Aedes aegypti; Dosage 0.5 mg/cm^2) [min] | pest or weed control at 0.1 mg/cm2 (Aedes aegypti; Dosage 0.1 mg/cm^2) [%] | Failure time (Aedes aegypti; [2]) [min] | also measured
CCN(CC)C(=O)c1cccc(C)c1 [N,N-diethyl-m-toluamide, reference compound] |  |  |  |  | duration of protection relative to 2% 8-allylsulfanyloctan-1-ol (297 min) (Anopheles gambiae; 2% DEET in ethanol vs 2% 8-allylsulfanyloctan-1-ol in mineral oil): one sixth; protection from bites, average duration (Anopheles gambiae; 2% formulation in ethanol, 1.5 mg per cm^2, Experiment 13): 66 min; protection from bites, average duration (Aedes aegypti; 6.7% formulation in ethanol, 1.5 mg per cm^2, Experiment 26): 197 min; protection from bites, average duration (Aedes aegypti; 10.4% formulation in ethanol, 1.5 mg per cm^2, Experiment 27): 231 min
C=CCSCCCCCCSCC=C [Compound 18, 4,11-dithiatetradeca-1,13-diene] | 93 | 67 |  |  | 
COc1cc(C=O)ccc1O [vanillin] |  |  |  |  | protection from bites, average duration (Culex quinquefasciatus): 88 min; protection from bites, average duration (Anopheles gambiae; 6.7% single active in Emulsion No. 1 (FIG. 8 legend: 2.0%), 1.5 mg per cm^2, Experiments 18, 19): 110 min; protection from bites, average duration (Aedes aegypti; 6.7% single active in Emulsion No. 1, 1.5 mg per cm^2, Experiments 14, 15): 44 min
C=CCSCCCCCCC(C)O (centres unmarked) [Compound 23, 8-allylsulfanyloctan-2-ol] |  |  |  |  | Failure time (Aedes aegypti; Dosage 0.05 mg/cm^2): 99 min
C=CCSSCC(C)SSCC=C (centres unmarked) [Compound 12, 6-methyl-4,5,8,9-tetrathiadodeca-1,11-diene] | 97 | 102 | 87 | 0 | electroantennographic (EAD) response of mosquito antennae [1]: Antennal stimulatory; repellent and deterrent effect in bioassays (in words) (mosquitoes): strong repellent and deterrent effect
C=CCSSc1ccccc1SSCC=C [Compound 15, 1,2-bis-(1,2-dithia-4-pentenyl)-benzene] |  |  | 92 | 34 | 
C=CCSSCC1CC=CSC1 (centres unmarked) [Compound 14, 3-(2,3-dithia-5-hexenyl)-3,4-dihydro-2(H)-thiopyran] |  |  |  |  | electroantennographic (EAD) response of mosquito antennae [1]: Antennal stimulatory; repellent and deterrent effect in bioassays (in words) (mosquitoes): strong repellent and deterrent effect
C=CCSSCC1CCC=CS1 (centres unmarked) [Compound 13, 2-(2,3-dithia-5-hexenyl)-3,4-dihydro-2(H)-thiopyran] |  |  |  |  | electroantennographic (EAD) response of mosquito antennae [1]: Antennal stimulatory; repellent and deterrent effect in bioassays (in words) (mosquitoes): strong repellent and deterrent effect
C=CCSCCCSCC=C [Compound 17, 4,8-dithiaundeca-1,10-diene] | 97 | 36 | 89 | 0 | 
C=CCSCCCCCCCCSCC=C [Compound 19, 4,13-dithiahexadeca-1,15-diene] | 97 | 102 | 93 | 0 | 
C=CCSSC/C=C/c1ccccc1 [Compound 16, (E)-4,5-dithia-1,7-octadien-1-yl-benzene] | 92 | 36 | 89 | 35 | 
C=CCOCCCCCCCCCCOCC=C [Compound 20, 1,10-bis-allyloxy-decane] |  |  | 81 | 0 | had any repellence or deterrence in bioassays (Aedes aegypti; see TABLE 2, 0.1 mg/cm^2): neither
C=CCSCCCCCCCCCO [Compound 22, 9-allylsulfanylnonan-1-ol] |  |  |  |  | Failure time (Aedes aegypti; Dosage 0.05 mg/cm^2): 33 min
